For orientation: IC50 means the concentration at which inhibition is half-maximal. A higher IC50 goes with a need for much substance.

protein-protein interaction between SOS1 and KRAS G12D, sequence (Q07889 564-1049, stated change not applied): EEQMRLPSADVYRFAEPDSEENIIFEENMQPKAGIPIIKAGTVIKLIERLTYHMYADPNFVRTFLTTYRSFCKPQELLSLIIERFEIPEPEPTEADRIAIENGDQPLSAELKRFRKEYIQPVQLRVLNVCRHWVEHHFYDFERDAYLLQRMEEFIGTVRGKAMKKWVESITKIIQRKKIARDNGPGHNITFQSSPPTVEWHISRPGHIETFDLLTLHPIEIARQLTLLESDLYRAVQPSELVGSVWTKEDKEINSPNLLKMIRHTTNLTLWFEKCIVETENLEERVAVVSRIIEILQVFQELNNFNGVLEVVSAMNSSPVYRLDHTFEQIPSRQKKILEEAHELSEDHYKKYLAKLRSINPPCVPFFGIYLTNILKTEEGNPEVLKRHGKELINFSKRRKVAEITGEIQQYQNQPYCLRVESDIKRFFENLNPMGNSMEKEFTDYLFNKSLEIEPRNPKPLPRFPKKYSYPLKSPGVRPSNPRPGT

One assay concerns the target protein-protein interaction between SOS1 and KRAS G12D (Homo sapiens (Human), UniProt Q07889). Briefly: KRAS::SOS1 AlphaScreen Binding Assay. As to conditions: KRAS G12D::SOS1 AlphaScreen; measured without EDTA unless marked with an asterisk. The source says: KRAS::SOS1 AlphaScreen Binding Assay
Low IC50 values are indicative of high potency of the SOS1 inhibitor compound in this assay setting:
Reagents: • GST-tagged SOS1 (564_1049_GST_TEV_ECO) produced in-house • GST-TEV-SOS1 (564-1049) is purchased from Viva Biotech Ltd. • 6×His-Tev-K-RasG12D(1-169)Avi is purchased from Xtal BioStructures, Inc. (Lot # X129-110) • GDP (Sigma Cat No G7127) • AlphaLISA Glutathione Acceptor Beads (PerkinElmer, Cat No AL109) • AlphaScreen Streptavidin Donor Beads (PerkinElmer Cat No 6760002) • Assay plates: Proxiplate-384 PLUS, white (PerkinElmer, Cat No 6008289)
10 nM (final assay concentration) KRAS G12D, 10 μM (final assay concentration) GDP and 5 nM (final assay concentration) GST-SOS1 are mixed in assay buffer prior to use and kept at room temperature.
AlphaLISA Glutathione Acceptor Beads and AlphaScreen Streptavidin Donor Beads are mixed in assay buffer at a concentration of 10 μg/mL (final assay concentration) each prior to use and kept at room temperature.
Compounds are diluted to a final start concentration of 100 μM and are tested in duplicate. Assay-ready plates (ARPs) are generated using an Access Labcyte Workstation with a Labcyte Echo 550 or 555 accoustic dispenser. For compound a start concentration of 100 μM, 150 nL of compound solution is transferred per well in 11 concentrations in duplicate with serial 1:5 dilutions.
The assay is run using a fully automated robotic system in a darkened room below 100 Lux. 10 μL of KRAS::SOS1 GDP mix is added into columns 1-24 to the 150 nL of compound solution (final dilution in the assay 1:100, final DMSO concentration 1%).
After a 30 minute incubation time 5 μL of bead mix is added into columns 1-23. Plates are kept at room temperature in a darkened incubator. After a further 60 minute incubation, the signal is measured using a PerkinElmer Envision HTS Multilabel Reader using the AlphaScreen specifications from PerkinElmer. Each plate contains the following controls: • diluted DMSO+KRAS::SOS1 GDP mix+bead mix • diluted DMSO+KRAS::SOS1 GDP mix
IC50 values are calculated and analyzed using a 4 parametric logistic model.
In the case of `C[C@@H](Nc1ncnc2cc(=O)n(C3(C)CC3)cc12)c1cccc2c1CCC2=O` [I-105], the IC50 came out at 25 nM.

The molecule `C[C@@H](Nc1ncnc2cc(=O)n(C34CC(C3)C4)cc12)c1cccc2c1CCC2=O` [I-107] returned a concentration for half-maximal inhibition (IC50) of 17 nM.

The molecule `C[C@@H](Nc1ncnc2cc(=O)n(C34CCC(CC3)C4)cc12)c1cccc2c1CCC2=O` [I-109] returned an IC50 of 6 nM.

On to `Cc1nc(N[C@H](C)c2cccc(C(F)(F)F)c2)c2cn(C(C)(C)C)c(=O)cc2n1` [I-110], for which the IC50 worked out at 25 nM. This IC50 is about 4.2-fold higher than that of the molecule before.

Regarding `Cc1nc(N[C@H](C)c2cccc(C(F)(F)F)c2)c2cn(C3(C)CCOC3)c(=O)cc2n1` (stereo partly drawn) [I-111], the IC50 came out at 9 nM.

As for `Cc1nc(N[C@H](C)c2cccc(C(F)(F)F)c2)c2cn(C3(C)CCOCC3)c(=O)cc2n1` [I-112], the IC50 came to 13 nM.

Consider `Cc1nc(N[C@H](C)c2cccc(C(F)(F)F)c2)c2cn(C3(C)CCCOC3)c(=O)cc2n1` (stereo partly drawn) [I-113], for which the IC50 amounted to 39 nM.

In turn, `Cc1nc(N[C@H](C)c2cccc(C(F)(F)F)c2)c2cn(C3(C)CCN(C)CC3)c(=O)cc2n1` [I-114] gave an IC50 of 26 nM.

The same assay, now with this note: Table 20; KRAS::SOS1 AlphaScreen (SOS1 / KRAS G12D).
As for `Cc1nc(N[C@H](C)c2cccc(C(F)F)c2F)c2cn(C3(C)CC3)c(=O)cc2n1` [I-1], the IC50 was 5 nM. In other words, the single-digit nanomolar range.

`Cc1nc(N[C@H](C)c2cccc(C(F)F)c2F)c2cn(C3(CF)CC3)c(=O)cc2n1` [I-2]: the IC50 is 4 nM.

In turn, `CCC1(n2cc3c(N[C@H](C)c4cccc(C(F)F)c4F)nc(C)nc3cc2=O)CC1` [I-5] had a concentration for half-maximal inhibition (IC50) of 12 nM.

The molecule `COCC1(n2cc3c(N[C@H](C)c4cccc(C(F)F)c4F)nc(C)nc3cc2=O)CC1` [I-6] registered a concentration for half-maximal inhibition (IC50) of 6 nM.

In turn, `Cc1nc(N[C@H](C)c2cccc(C(F)F)c2F)c2cn(C3(c4ccncc4)CC3)c(=O)cc2n1` [I-7] returned an IC50 of 8 nM.

On to `Cc1nc(N[C@H](C)c2cccc(C(F)F)c2F)c2cn(C3(c4ccccc4)CC3)c(=O)cc2n1` [I-8], for which the IC50 was found to be 16 nM.

`Cc1nc(N[C@H](C)c2cccc(C(F)F)c2F)c2cn(C3(c4ccc(F)cc4)CC3)c(=O)cc2n1` [I-9] had an IC50 of 30 nM.

Take `Cc1nc(N[C@H](C)c2cccc(C(F)F)c2F)c2cn(C3(C)CCC3)c(=O)cc2n1` [I-11]: the IC50 was determined as 5 nM.

On to `Cc1nc(N[C@H](C)c2cccc(C(F)F)c2F)c2cn([C@H]3C[C@H](F)C3)c(=O)cc2n1` [I-12], for which the IC50 was 7 nM.

Molecule `Cc1nc(N[C@H](C)c2cccc(C(F)F)c2F)c2cn(C34CC(C3)C4)c(=O)cc2n1` [I-15] yielded an IC50 of 8 nM.

As to `Cc1nc(N[C@H](C)c2cccc(C(F)F)c2F)c2cn(C34CC(F)(C3)C4)c(=O)cc2n1` [I-16], the IC50 was 12 nM.

As for `Cc1nc(N[C@H](C)c2cccc(C(F)F)c2F)c2cn(C34CC(N5CCOCC5)(C3)C4)c(=O)cc2n1` [I-17], the IC50 turned out to be 5 nM. This IC50 lies about 2.4-fold lower than the previous one.

For the molecule `Cc1nc(N[C@H](C)c2cccc(C(F)F)c2F)c2cn(C3CCOCC3)c(=O)cc2n1` [I-18], the IC50 stood at 5 nM.

Turning to `Cc1nc(N[C@H](C)c2cccc(C(F)F)c2F)c2cn(C34CCC(CC3)C4)c(=O)cc2n1` [I-19], the IC50 turned out to be 2 nM. Against the preceding molecule, the IC50 is about 2.5-fold lower.

For the molecule `Cc1nc(N[C@H](C)c2cccc(C(F)F)c2C)c2cn(C34CCC(C(=O)N(C)C)(CC3)C4)c(=O)cc2n1` [I-24], the IC50 worked out at 10 nM.

`Cc1nc(N[C@H](C)c2cccc(C(F)(F)F)c2)c2cn(C3CC3)c(=O)cc2n1` [I-26] returned an IC50 of 37 nM.

Turning to `Cc1nc(N[C@H](C)c2cccc(C(F)(F)F)c2)c2cn(C3CCCC3)c(=O)cc2n1` [I-28], the IC50 worked out at 27 nM. The IC50 values of the last two molecules are within 1.5-fold of each other.

In turn, `Cc1nc(N[C@H](C)c2cccc(C(F)(F)F)c2)c2cn(C3CCCCC3)c(=O)cc2n1` [I-29] registered an IC50 of 24 nM. This IC50 and that of the molecule before are within 1.5-fold of each other.

In the case of `Cc1nc(N[C@H](C)c2cccc(C(F)(F)F)c2)c2cn(C3CCC(F)(F)CC3)c(=O)cc2n1` [I-30], the 50% inhibitory concentration (IC50) is 39 nM. Compared with the last molecule, the IC50 is about 1.6-fold higher.

Molecule `Cc1nc(N[C@H](C)c2cccc(C(F)(F)F)c2)c2cn(C3CCOCC3)c(=O)cc2n1` [I-31] displayed an IC50 of 11 nM.

`Cc1nc(N[C@H](C)c2cccc(C(F)(F)F)c2F)c2cn([C@H]3[C@@H]4COC[C@@H]43)c(=O)cc2n1` [I-32] displayed an IC50 of 12 nM.

For `Cc1nc(N[C@H](C)c2cccc(C(F)(F)F)c2F)c2cn([C@@H]3CCOC3)c(=O)cc2n1` [I-33], the IC50 came out at 38 nM.

Turning to `Cc1nc(N[C@H](C)c2cccc(C(F)(F)F)c2F)c2cn([C@H]3CCOC3)c(=O)cc2n1` [I-34], the IC50 was determined as 39 nM. This IC50 and that of the molecule before are within 1.5-fold of each other.

On to `Cc1nc(N[C@H](C)c2cccc(C(F)(F)F)c2F)c2cn(C3CCOCC3)c(=O)cc2n1` [I-35], for which the IC50 came out at 9 nM.

On to `Cc1nc(N[C@H](C)c2cccc(C(F)(F)F)c2F)c2cn(C3(c4ccccc4)CCOCC3)c(=O)cc2n1` [I-36], for which the half-maximal inhibitory concentration (IC50) is 40 nM. Against the preceding molecule, the IC50 is about 4.4-fold higher.

`Cc1nc(N[C@H](C)c2cccc(C(F)(F)F)c2C)c2cn([C@H]3[C@@H]4COC[C@@H]43)c(=O)cc2n1` [I-40] gave an IC50 of 9 nM.

For `Cc1nc(N[C@H](C)c2cccc(C(F)(F)F)c2C)c2cn(C3CCC3)c(=O)cc2n1` [I-41], the IC50 was 14 nM.

Molecule `Cc1nc(N[C@H](C)c2cccc(C(F)(F)F)c2C)c2cn(C3(C)CCC3)c(=O)cc2n1` [I-42] registered a half-maximal inhibitory concentration (IC50) of 9 nM. This IC50 lies about 1.6-fold lower than the previous one.

`Cc1nc(N[C@H](C)c2cccc(C(F)(F)F)c2C)c2cn([C@H]3C[C@H](O)C3)c(=O)cc2n1` [I-43]: the IC50 stood at 5 nM.

In turn, `Cc1nc(N[C@H](C)c2cccc(C(F)(F)F)c2C)c2cn([C@H]3C[C@@H](O)C3)c(=O)cc2n1` [I-44] gave an IC50 of 12 nM.

For `Cc1nc(N[C@H](C)c2cccc(C(F)(F)F)c2C)c2cn(C3(C)CC(F)(F)C3)c(=O)cc2n1` [I-46], the 50% inhibitory concentration (IC50) was 31 nM.

As to `Cc1nc(N[C@H](C)c2cccc(C(F)(F)F)c2C)c2cn([C@H]3C[C@@](O)(C(F)(F)F)C3)c(=O)cc2n1` [I-48], the IC50 was found to be 27 nM. The IC50 values of the last two molecules are within 1.5-fold of each other.

The molecule `Cc1nc(N[C@H](C)c2cccc(C(C)(F)F)c2F)c2cn(C3(C(F)(F)F)CC3)c(=O)cc2n1` [I-55] came in with a half-inhibitory concentration (IC50) of 13 nM. This IC50 lies about 2.1-fold lower than the previous one.

The molecule `Cc1nc(N[C@H](C)c2cccc(C(C)(F)F)c2F)c2cn(C34CC(F)(C3)C4)c(=O)cc2n1` [I-56] came in with an IC50 of 15 nM.

Consider `Cc1nc(N[C@H](C)c2cccc3c2CCC3(F)F)c2cn(C34CCN(CC3)C4)c(=O)cc2n1` [I-60], for which the IC50 was 2 nM.

`C[C@@H](Nc1ncnc2cc(=O)n(C3(C)CC3)cc12)c1cccc(C(F)F)c1F` [I-62] had an IC50 of 7 nM.

As for `C[C@@H](Nc1ncnc2cc(=O)n(C3(CF)CC3)cc12)c1cccc(C(F)F)c1F` [I-63], the IC50 turned out to be 7 nM.

The molecule `C[C@@H](Nc1ncnc2cc(=O)n(C3(C(F)F)CC3)cc12)c1cccc(C(F)F)c1F` [I-64] gave an IC50 of 8 nM. The IC50 values of the last two molecules are within 1.5-fold of each other.

Consider `C[C@@H](Nc1ncnc2cc(=O)n(C3(C(F)(F)F)CC3)cc12)c1cccc(C(F)F)c1F` [I-65], for which the IC50 was found to be 10 nM.

In turn, `C[C@@H](Nc1ncnc2cc(=O)n(C3CC34CC4)cc12)c1cccc(C(F)F)c1F` (stereo partly drawn) [I-66] displayed an IC50 of 15 nM.

`C[C@@H](Nc1ncnc2cc(=O)n(C34CC(C3)C4)cc12)c1cccc(C(F)F)c1F` [I-70] displayed an IC50 of 7 nM.

`C[C@@H](Nc1ncnc2cc(=O)n(C3(C(F)(F)F)CCOC3)cc12)c1cccc(C(F)F)c1F` (stereo partly drawn) [I-72] displayed a 50% inhibitory concentration (IC50) of 11 nM.

Regarding `C[C@@H](Nc1ncnc2cc(=O)n(C3(C)CC3)cc12)c1cccc(C(C)(F)F)c1F` [I-76], the IC50 is 7 nM.

`C[C@@H](Nc1ncnc2cc(=O)n(C3(CF)CC3)cc12)c1cccc(C(C)(F)F)c1F` [I-77] displayed an IC50 of 6 nM.

For `Cc1nc(N[C@H](C)c2cccc(C(F)F)c2F)c2cn(C3(C(F)F)CC3)c(=O)c(F)c2n1` [I-82], the IC50 came to 5 nM.

Molecule `Cc1nc(N[C@H](C)c2cccc(C(F)(F)C(C)(C)O)c2F)c2cn(C34CC(F)(C3)C4)c(=O)c(F)c2n1` [I-91] gave an IC50 of 4 nM.

For the molecule `Cc1nc(N[C@H](C)c2cccc(C(F)(F)C3CCCO3)c2)c2cn(C3(C)CC3)c(=O)c(F)c2n1` (stereo partly drawn) [I-92], the IC50 was 4 nM.

Turning to `Cc1nc(N[C@H](C)c2cccc(C(F)(F)C3CCCO3)c2)c2cn(C3(C(F)F)CC3)c(=O)c(F)c2n1` (stereo partly drawn) [I-93], the half-maximal inhibitory concentration (IC50) worked out at 3 nM.

Take `Cc1nc(N[C@H](C)c2cccc(C(F)(F)[C@@H]3CCCO3)c2F)c2cn(C3(C)CC3)c(=O)c(F)c2n1` [I-94]: the IC50 amounted to 5 nM.

The molecule `Cc1nc(N[C@H](C)c2cccc(C(F)(F)[C@@H]3CCCO3)c2F)c2cn(C3(C(F)F)CC3)c(=O)c(F)c2n1` [I-95] registered an IC50 of 5 nM.

`Cc1nc(N[C@H](C)c2cccc(C(C)(F)F)c2)c2cn(C3(C(F)F)CC3)c(=O)cc2n1` [I-99] gave an IC50 of 7 nM.

Turning to `Cc1nc(N[C@H](C)c2cccc(CC(F)(F)F)c2)c2cn(C3(C(F)F)CC3)c(=O)cc2n1` [I-100], the IC50 came to 30 nM. Against the preceding molecule, the IC50 is about 4.3-fold higher.

Source of the values: patent publication US10829487B2, “Benzylamino substituted pyridopyrimidinones and derivatives as SOS1 inhibitors” (Boehringer Ingelheim International GmbH, priority 2017, dated 2020).
